According to PubChem BioAssay AID1963421 (Molecular Pharmacology Branch, DTP, NCI, 2024):

Tested on: 519858-162-T-J1-PDC complex spheroid growth, % test/control
Experiment: Anticancer human tumor 519858-162-T-J1-PDC patient-derived colon adenocarcinoma cell line growth inhibition [Asc]
Details: for IC50: curve of first compound; for viability, T/C: stronger effect = lower value
In short: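 Tumor cells were grown as multicellular spheroids with stromal HUVEC and mesenchymal stem cells and treated singly or in combination. Concentrations fell in half-log steps from the clinical Cmax, or from 10 microM where none was known.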

[1] = second compound 0.0316 µM, first compound 0.0316 µM
[2] = second compound 0.0316 µM, first compound 0.1 µM
[3] = second compound 0.0316 µM, first compound 0.316 µM
[4] = second compound 0.0316 µM, first compound 1 µM
[5] = second compound 0.0316 µM, first compound 3.16 µM
[6] = second compound 0.0316 µM, first compound 10 µM
[7] = second compound 0.1 µM, first compound 0.0316 µM
[8] = second compound 0.1 µM, first compound 0.1 µM
[9] = second compound 0.1 µM, first compound 0.316 µM
[10] = second compound 0.1 µM, first compound 1 µM
[11] = second compound 0.1 µM, first compound 3.16 µM
[12] = second compound 0.1 µM, first compound 10 µM
[13] = second compound 0.316 µM, first compound 0.0316 µM
[14] = second compound 0.316 µM, first compound 0.1 µM
[15] = second compound 0.316 µM, first compound 0.316 µM
[16] = second compound 0.316 µM, first compound 1 µM
[17] = second compound 0.316 µM, first compound 3.16 µM
[18] = second compound 0.316 µM, first compound 10 µM
[19] = second compound 1 µM, first compound 0.0316 µM
[20] = second compound 1 µM, first compound 0.1 µM
[21] = second compound 1 µM, first compound 0.316 µM
[22] = second compound 1 µM, first compound 1 µM
[23] = second compound 1 µM, first compound 3.16 µM
[24] = second compound 1 µM, first compound 10 µM
[25] = second compound 3.16 µM, first compound 0.0316 µM
[26] = second compound 3.16 µM, first compound 0.1 µM
[27] = second compound 3.16 µM, first compound 0.316 µM
[28] = second compound 3.16 µM, first compound 1 µM
[29] = second compound 3.16 µM, first compound 3.16 µM
[30] = second compound 3.16 µM, first compound 10 µM
[31] = second compound 10 µM, first compound 0.0316 µM
[32] = second compound 10 µM, first compound 0.1 µM
[33] = second compound 10 µM, first compound 0.316 µM
[34] = second compound 10 µM, first compound 1 µM
[35] = second compound 10 µM, first compound 3.16 µM
[36] = second compound 10 µM, first compound 10 µM
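Further: seven day drug exposure begun three days after spheroid seeding.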
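Wherever viability, T/C is given: 100% = DMSO vehicle wells and lower values mean less viable spheroid.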

With `C=CC(=O)N1CCN(c2nc(=O)n(-c3c(C)ccnc3C(C)C)c3nc(-c4c(O)cccc4F)c(F)cc23)C(C)C1` (centres undefined) + Cc1c(S(C)(=O)=O)c(-c2cc(F)cc(N3CCN(c4ccc(NS(=O)(=O)c5ccc(NC(CCN6CCC(C(=O)OCCCP(=O)(O)O)CC6)CSc6ccccc6)c(S(=O)(=O)C(F)(F)F)c5)cc4)CC3)c2)c(-c2ccc(Cl)cc2)n1C(C)C the IC50 (second compound 0.0316 µM) was greater than 10 µM, the IC50 (second compound 0.1 µM) was greater than 10 µM and the IC50 (second compound 0.316 µM) was greater than 10 µM. For the same compound, the IC50 (second compound 1 µM) was greater than 10 µM, the IC50 (second compound 3.16 µM) was greater than 10 µM and the IC50 (second compound 10 µM) was 0.0316 µM. It also gave a viability, T/C [1] of 93.5%, a viability, T/C [2] of 97.2% and a viability, T/C [3] of 83.9%. It also gave a viability, T/C [4] of 79.4%, a viability, T/C [5] of 83.8% and a viability, T/C [6] of 70.9%. The viability, T/C [7] was 84.2%, the viability, T/C [8] was 84.3% and the viability, T/C [9] was 82.5%. It also gave a viability, T/C [10] of 89.5%, a viability, T/C [11] of 87.7% and a viability, T/C [12] of 77%. It also gave a viability, T/C [13] of 89.7%, a viability, T/C [14] of 86.6% and a viability, T/C [15] of 76.2%. The viability, T/C [16] was 75.5%, the viability, T/C [17] was 68.7% and the viability, T/C [18] was 66.1%. It also gave a viability, T/C [19] of 62.6%, a viability, T/C [20] of 58.5% and a viability, T/C [21] of 72.4%. For the same compound, the viability, T/C [22] was 69.5%, the viability, T/C [23] was 87.9% and the viability, T/C [24] was 73.6%. It also gave a viability, T/C [25] of 72.8%, a viability, T/C [26] of 77.9% and a viability, T/C [27] of 64%. The viability, T/C [28] was 60.6%, the viability, T/C [29] was 56.3% and the viability, T/C [30] was 68.9%. The viability, T/C [31] was 52.9%, the viability, T/C [32] was 53.7% and the viability, T/C [33] was 46.9%. The viability, T/C [34] was 55.3%, the viability, T/C [35] was 83.2% and the viability, T/C [36] was 63.7%.

Work on `C#Cc1c(F)ccc2cc(O)cc(-c3ncc4c(N5CC6CCC(C5)N6)nc(OCC56CCCN5CC(F)C6)nc4c3F)c12` (centres undefined) + Cc1c(S(C)(=O)=O)c(-c2cc(F)cc(N3CCN(c4ccc(NS(=O)(=O)c5ccc(NC(CCN6CCC(C(=O)OCCCP(=O)(O)O)CC6)CSc6ccccc6)c(S(=O)(=O)C(F)(F)F)c5)cc4)CC3)c2)c(-c2ccc(Cl)cc2)n1C(C)C yielded an IC50 (second compound 0.0316 µM) greater than 10 µM, an IC50 (second compound 0.1 µM) greater than 10 µM and an IC50 (second compound 0.316 µM) greater than 10 µM. The IC50 (second compound 1 µM) was greater than 10 µM, the IC50 (second compound 3.16 µM) was greater than 10 µM and the IC50 (second compound 10 µM) was greater than 10 µM. For the same compound, the viability, T/C [1] was 117%, the viability, T/C [2] was 88.2% and the viability, T/C [3] was 89.7%. The viability, T/C [4] was 89.5%, the viability, T/C [5] was 81.6% and the viability, T/C [6] was 83.9%. It also gave a viability, T/C [7] of 60.5%, a viability, T/C [8] of 109% and a viability, T/C [9] of 105%. It also gave a viability, T/C [10] of 99.7%, a viability, T/C [11] of 87.1% and a viability, T/C [12] of 89.6%. It also gave a viability, T/C [13] of 88.2%, a viability, T/C [14] of 88.3% and a viability, T/C [15] of 82.6%. The viability, T/C [16] was 77.3%, the viability, T/C [17] was 64.6% and the viability, T/C [18] was 56.9%. For the same compound, the viability, T/C [19] was 84.4%, the viability, T/C [20] was 75.1% and the viability, T/C [21] was 84%. It also gave a viability, T/C [22] of 58.2%, a viability, T/C [23] of 78.7% and a viability, T/C [24] of 82.7%. The viability, T/C [25] was 70.6%, the viability, T/C [26] was 79.9% and the viability, T/C [27] was 58.9%. For the same compound, the viability, T/C [28] was 57.3%, the viability, T/C [29] was 95.8% and the viability, T/C [30] was 67.8%. It also gave a viability, T/C [31] of 62.9%, a viability, T/C [32] of 66.2% and a viability, T/C [33] of 65.9%. The viability, T/C [34] was 56.6%, the viability, T/C [35] was 60.1% and the viability, T/C [36] was 77.5%.
